Assays:
[1] = Small Animal Decorporation Efficacy Study; assay type: in vivo; conditions: rats; oral C2E5 compared with IV administration of equivalent doses of DTPA
[2] = Bioavailability study (oral C2E5 vs intravenous DTPA); assay type: in vivo, rat
Protocol: A bioavailability study was conducted in which five rats were intravenously administered 5 mg of DTPA and another 5 rats were orally administered an equivalent […] dose (approximately 7 mg) of C2E5 in a 10% ethanol solution. Blood samples were obtained at regular intervals from an in-dwelling catheter that had been surgically implanted prior to the administration of the doses.

CCOC(=O)CN(CCN(CC(=O)OCC)CC(=O)OCC)CCN(CC(=O)OCC)CC(=O)OCC [C2E5, DTPA Pentaethyl Ester]
decorporation of ^241Am [1]: compared favorably | bioavailability ([2]; rat model, oral, approximately 7 mg C2E5 in a 10% ethanol solution, compared with 5 mg DTPA intravenously): ~100% | C2E5 detected in the plasma ([2]; rat, after oral C2E5 in a 10% ethanol solution): no C2E5 can be detected in the plasma | conversion to DTPA after absorption from the gastrointestinal tract ([2]; rat, oral C2E5): quantitatively and rapidly converted to DTPA | blood concentration profile compared to IV DTPA ([2]; rat, oral C2E5 vs 5 mg DTPA intravenously): lower blood levels and a longer duration compared to IV DTPA

Reference: patent publication US8030358B2, “Methods and pharmaceutical compositions for decorporation of radioactive compounds” (priority 2007, dated 2011)
